Measurements published in US20250388605A1, “HETEROBIFUNCTIONAL COMPOUNDS AND METHODS OF TREATING DISEASE” (Halda Therapeutics OpCo, Inc., priority 2022, published 2025).

Columns and labels:
[1] = tested on: T-Rex 293 cell line SC3 cells having increased expression of androgen receptor protein due to exposure to doxycycline; experiment: Cellular growth inhibition, T-Rex 293 SC3 cells with doxycycline (increased androgen receptor expression), CellTiter-Glo; type: cell-based; settings: T-Rex 293 SC3 cells with 10 ng/mL doxycycline (increased androgen receptor expression), 72 hours, CellTiter-Glo 2.0
Experimental: (§1) The following types of cells were prepared for this experiment: (i) a T-Rex 293 cell line having increased expression of androgen receptor protein due to exposure to doxycycline and (ii) a T-Rex 293 cell line lacking increased expression of androgen receptor protein. Ability of the test compounds to inhibit proliferation of the foregoing cell types was evaluated according to the procedures set forth below.
(§2) The doxycycline-inducible androgen receptor protein expressing cell line was established using the following protocol: T-Rex 293 cells were purchased from Invitrogen (Cat #R71007) and transfected using Lipofectamine 2000 with the wild-type androgen receptor protein sequence cloned into the pcDNA4/TO vector. Transfected cells were selected using 400 μg/mL Zeocin (Invitrogen Cat #R25001). Following selection, single clones were raised and maintained in Dulbecco's Modified Eagle Medium (DMEM) supplemented with 10% w/w Tetracycline-free fetal bovine serum (FBS) and 250 μg/mL Zeocin. Clones were analyzed for expression of androgen receptor protein in the presence and absence of 10 ng/mL doxycycline (Sigma Cat #D9891), and a single doxycycline-inducible clone (hereinafter “SC3”) was selected for use in downstream assays.
(§3) The SC3 cells were seeded on poly-D-lysine coated, black clear-bottom 384-well plates at 2500/well, in 25 μL Phenol Red Free Dulbecco's Modified Eagle Medium (DMEM) supplemented with 10% w/w charcoal-dextran treated fetal bovine serum (FBS) and 1% w/w pen-strep, with or without 10 ng/mL doxycycline. Pen-Strep is a commercially available mixture of penicillin G and streptomycin, which is used in mammalian cell culture media to prevent bacterial contamination. Phenol Red Free Dulbecco's Modified Eagle Medium (DMEM) supplemented with 10% w/w charcoal-dextran treated fetal bovine serum (FBS) and 1% w/w pen-strep, with or without 10 ng/mL doxycycline is herein referred to as Treatment Medium. Following seeding of cells in the plates, the plates were spun at 300×g for 30 seconds, then equilibrated to room temperature for 30 minutes, and then deposited in a humidified tissue culture incubator maintained at 37° C. with 5% CO2.
(§4) At 24 hours after seeding of the cells, dilutions of test compound were prepared in DMSO and dissolved in Treatment Medium, to achieve a final DMSO concentration of 0.5% w/w, thereby providing the Test Compound Solution. A 25 μL aliquot of the Test Compound Solution was added to cells in the well plates. An equal volume of a solution containing DMSO and Treatment Medium was used as a negative control. Following treatment of cells with Test Compound Solution or said equal volume of a solution containing DMSO and Treatment Medium, the plates were spun at 300×g for 30 seconds, and then left in an incubator for 72 hours.
(§5) At the end of the treatment duration, cell viability was quantified with CellTiter-Glo 2.0 reagent (Promega Cat #G9243). For this purpose, plates were equilibrated to room temperature for 30 minutes, and then 25 μL of CellTiter-Glo 2.0 reagent was added to cells in the plate wells. Plates were then agitated on a shaker for two minutes at 500 rpm and subsequently incubated at room temperature for 10 minutes. Following incubation, the plates were spun at 3000×g for 30 seconds, then sealed with an optical adhesive cover, and luminescence readings were measured with an EnVision Plate Reader.
(§6) Data was normalized using zero luminescence for baseline. A four-parameter non-linear regression curve fit was applied to dose-response data in GraphPad Prism data analysis software to determine the half-maximal growth inhibitory concentration (GI50) for each test compound.

[2] = tested on: T-Rex 293 cell line SC3 cells lacking increased expression of androgen receptor protein; experiment: Cellular growth inhibition, T-Rex 293 SC3 cells without doxycycline (no increased androgen receptor expression), CellTiter-Glo; type: cell-based; settings: T-Rex 293 SC3 cells not exposed to doxycycline (no increased androgen receptor expression), 72 hours
Experimental: as §1, §2, §3, §4, §5, §6

[3] = tested on: VCaP cells; experiment: Cellular growth inhibition assay for VCaP cells, CellTiter-Glo; type: cell-based, human; settings: 72 hours
Experimental: VCaP cells were purchased from American Type Cell Culture (ATCC Cat #CRL2876) and then seeded on poly-D-lysine coated, black clear-bottom 384-well plates at 5000/well in 25 μL Dulbecco's Modified Eagle Medium (DMEM) supplemented with 10% w/w Fetal bovine serum (FBS) and 1% w/w Pen-Strep. Pen-Strep is a commercially available mixture of penicillin G and streptomycin, which is used in mammalian cell culture media to prevent bacterial contamination. Dulbecco's Modified Eagle Medium (DMEM) supplemented with 10% w/w fetal bovine serum (FBS) and 1% w/w Pen-Strep is herein referred to as Treatment Medium. Following seeding of cells in the plates, the plates were spun at 300×g for 30 seconds, then equilibrated to room temperature for 30 minutes, and then deposited in a humidified tissue culture incubator maintained at 37° C. with 5% CO2.
as §4, §5, §6

GI50 ([3]; Homo sapiens) | GI50 [3] | SMILES | GI50 [1] | GI50 [2]
< 0.5 µM |  | CCS(=O)(=O)Nc1ccc(Oc2cccc(CCCOC3CCN(c4ncc(C(=O)N[C@H]5C(C)(C)[C@H](Oc6ccc(C#N)c(Cl)c6)C5(C)C)cn4)CC3)c2F)c(-c2cn(C)c(=O)c3[nH]ccc23)c1 [Compound I-154] | < 0.5 µM | < 0.5 µM
< 0.5 µM |  | CCS(=O)(=O)Nc1ccc(Oc2cccc(OCCCC3CCN(c4ncc(C(=O)N[C@H]5C(C)(C)[C@H](Oc6ccc(C#N)c(Cl)c6)C5(C)C)cn4)CC3)c2F)c(-c2cn(C)c(=O)c3[nH]ccc23)c1 [Compound I-155] | < 0.5 µM | > 3 µM
 | < 0.5 µM | CCS(=O)(=O)Cc1ccc(Oc2cccc(CCOC3CCN(c4ncc(C(=O)N[C@H]5C(C)(C)[C@H](Oc6ccc(C#N)c(Cl)c6)C5(C)C)cn4)CC3)c2)c(-c2cn(C)c(=O)c3[nH]ccc23)c1 [Compound I-159] | < 0.5 µM | < 0.5 µM
 | < 0.5 µM | CCS(=O)(=O)Cc1ccc(Oc2cccc(CCOC3CCN(c4ncc(C(=O)N[C@H]5C(C)(C)[C@H](Oc6ccc(C#N)c(Cl)c6)C5(C)C)cn4)CC3)c2F)c(-c2cn(C)c(=O)c3[nH]ccc23)c1 [Compound I-160] | < 0.5 µM | < 0.5 µM
< 0.5 µM |  | CCS(=O)(=O)Nc1cc(F)c(Oc2cccc(OCCOC3CCN(c4ncc(C(=O)N[C@H]5C(C)(C)[C@H](Oc6ccc(C#N)c(Cl)c6)C5(C)C)cn4)CC3)c2)c(-c2cn(C)c(=O)c3[nH]ccc23)c1 [Compound I-161] | < 0.5 µM | > 3 µM
< 0.5 µM |  | CCS(=O)(=O)Nc1ccc(Oc2cccc(OCCOC3CCN(c4ccc(C(=O)N[C@H]5C(C)(C)[C@H](Oc6ccc(C#N)c(Cl)c6)C5(C)C)nn4)CC3)c2F)c(-c2cn(C)c(=O)c3[nH]ccc23)c1 [Compound I-162] | < 0.5 µM | > 3 µM
0.5 to 1.5 µM |  | Cn1cc(-c2cc(NS(=O)(=O)C(F)(F)F)ccc2Oc2cccc(OCCOC3CCN(c4ncc(C(=O)N[C@H]5C(C)(C)[C@H](Oc6ccc(C#N)c(Cl)c6)C5(C)C)cn4)CC3)c2F)c2cc[nH]c2c1=O [Compound I-163, N-[3-(3-chloro-4-cyano-phenoxy)-2,2,4,4-tetramethyl-cyclobutyl]-2-[4-[2-[2-fluoro-3-[2-(6-methyl-7-oxo-1H-pyrrolo[2,3-c]pyridin-4-yl)-4-(trifluoromethylsulfonylamino)phenoxy]phenoxy]ethoxy]-1-piperidyl]pyrimidine-5-carboxamide] | < 0.5 µM | > 3 µM
< 0.5 µM |  | CCS(=O)(=O)Cc1ccc(Oc2cccc(OCCOC3CCN(c4ccc(C(=O)N[C@H]5C(C)(C)[C@H](Oc6ccc(C#N)c(Cl)c6)C5(C)C)cn4)CC3)c2F)c(-c2cn(C)c(=O)c3[nH]ccc23)c1 [Compound I-166] | < 0.5 µM | < 0.5 µM
< 0.5 µM |  | CCS(=O)(=O)Cc1ccc(Oc2cccc(OCCOC3CCN(c4ccc(C(=O)N[C@H]5C(C)(C)[C@H](Oc6ccc(C#N)c(Cl)c6)C5(C)C)nn4)CC3)c2F)c(-c2cn(C)c(=O)c3[nH]ccc23)c1 [Compound I-167] | < 0.5 µM | > 3 µM
< 0.5 µM |  | CCS(=O)(=O)Cc1ccc(Oc2cccc(OCCCC3CCN(c4ncc(C(=O)N[C@H]5C(C)(C)[C@H](Oc6ccc(C#N)c(Cl)c6)C5(C)C)cn4)CC3)c2F)c(-c2cn(C)c(=O)c3[nH]ccc23)c1 [Compound I-168] | < 0.5 µM | > 3 µM
< 0.5 µM |  | CCS(=O)(=O)c1ccc(Oc2cccc(OCCOC3CCN(c4ccc(C(=O)N[C@H]5C(C)(C)[C@H](Oc6ccc(C#N)c(Cl)c6)C5(C)C)nn4)CC3)c2F)c(-c2cn(C)c(=O)c3[nH]ccc23)c1 [Compound I-169] | < 0.5 µM | < 0.5 µM
 | > 3 µM | CCS(=O)(=O)Nc1ccc(Oc2cccc(N(C)C3CC(C4CCN(c5ncc(C(=O)N[C@H]6C(C)(C)[C@H](Oc7ccc(C#N)c(Cl)c7)C6(C)C)cn5)CC4)C3)c2)c(-c2cn(C)c(=O)c3[nH]ccc23)c1 (stereo partly drawn) [Compound I-172] | < 0.5 µM | > 3 µM
< 0.5 µM |  | CCS(=O)(=O)Nc1ccc(Oc2cccc(NCCN(C)C3CCN(c4ncc(C(=O)N[C@H]5C(C)(C)[C@H](Oc6ccc(C#N)c(Cl)c6)C5(C)C)cn4)CC3)c2)c(-c2cn(C)c(=O)c3[nH]ccc23)c1 [Compound I-173] | 0.5 to 1.5 µM | > 3 µM
< 0.5 µM |  | CCS(=O)(=O)Cc1ccc(Oc2cccc(N3CC(N4CCN(c5ncc(C(=O)N[C@H]6C(C)(C)[C@H](Oc7ccc(C#N)c(Cl)c7)C6(C)C)cn5)CC4)C3)c2F)c(-c2cn(C)c(=O)c3[nH]ccc23)c1 [Compound I-174] | < 0.5 µM | > 3 µM
< 0.5 µM |  | CCS(=O)(=O)c1ccc(Oc2cccc(CCCOC3CCN(c4ncc(C(=O)N[C@H]5C(C)(C)[C@H](Oc6ccc(C#N)c(Cl)c6)C5(C)C)cn4)CC3)c2F)c(-c2cn(C)c(=O)c3[nH]ccc23)c1 [Compound I-176] | < 0.5 µM | < 0.5 µM
 | < 0.5 µM | CCS(=O)(=O)c1ccc(OCC(OCCOC2CCN(c3ncc(C(=O)N[C@H]4C(C)(C)[C@H](Oc5ccc(C#N)c(Cl)c5)C4(C)C)cn3)CC2)C2CC2)c(-c2cn(C)c(=O)c3[nH]ccc23)c1 (stereo partly drawn) [Compound I-177] | < 0.5 µM | < 0.5 µM
 | < 0.5 µM | CCS(=O)(=O)Nc1ccc(Oc2cccc(N(CCN(C)C3CCN(c4ncc(C(=O)N[C@H]5C(C)(C)[C@H](Oc6ccc(C#N)c(Cl)c6)C5(C)C)cn4)CC3)C(C)C)c2F)c(-c2cn(C)c(=O)c3[nH]ccc23)c1 [Compound I-183] | < 0.5 µM | < 0.5 µM
< 0.5 µM |  | CCS(=O)(=O)Cc1ccc(Oc2cccc(CCCOC3CCN(c4ncc(C(=O)N[C@H]5C(C)(C)[C@H](Oc6ccc(C#N)c(Cl)c6)C5(C)C)cn4)CC3)c2F)c(-c2cn(C)c(=O)c3[nH]ccc23)c1 [Compound I-184] | < 0.5 µM | < 0.5 µM
< 0.5 µM |  | CCS(=O)(=O)Nc1ccc(Oc2cccc(OCCOC3CCN(c4ccc(C(=O)N[C@H]5C(C)(C)[C@H](Oc6ccc(C#N)c(Cl)c6)C5(C)C)cn4)CC3)c2F)c(-c2cn(C)c(=O)c3[nH]ccc23)c1 [Compound I-188] | < 0.5 µM | < 0.5 µM
 | < 0.5 µM | Cn1cc(-c2cc(C(C)(C)O)ccc2Oc2ccc(N3CC4(CCN(c5cnc(C(=O)N[C@H]6C(C)(C)[C@H](Oc7ccc(C#N)c(Cl)c7)C6(C)C)cn5)CC4)C3)cc2)c2cc[nH]c2c1=O [Compound I-352] | < 0.5 µM | > 3 µM
 | 1.5 to 3 µM | Cn1cc(-c2cc(C(C)(C)O)ccc2Oc2ccc(N3CC4(CCN(c5ncc(C(=O)N[C@H]6C(C)(C)[C@H](Oc7ccc(C#N)c(Cl)c7)C6(C)C)cn5)CC4)C3)cc2)c2cc[nH]c2c1=O [Compound I-353] | < 0.5 µM | 1.5 to 3 µM
